Data published in ChEMBL document CHEMBL4387705, “Synthesis of new arylsulfonylspiroimidazolidine-2',4'-diones and study of their effect on stimulation of insulin release from MIN6 cell line, inhibition of human aldose reductase, sorbitol accumulations in various tissues and oxidative stress” (Eur J Med Chem, 2019).
pIC50: −log10 of the molar value.

Key:
[1] = test system: MIN6; assay: Cytotoxicity against mouse MIN6 cells assessed as reduction in cell viability up to 200 uM incubated for 24 hrs by MTT assay; format: cell-based; settings: min6, 24 h
[2] = Cytotoxicity against mouse MIN6 cells assessed as cell viability at 400 uM incubated for 24 hrs by MTT assay; format: cell-based; settings: read-out: Activity
[3] = test system: MIN6; assay: Antidiabetic activity in mouse MIN6 cells after 35 passages assessed as increase in insulin secretion at 100 uM in presence of 25 mM glucose by ELISA relative to control; format: functional
[4] = biological target: Aldo-keto reductase family 1 member B1 (Homo sapiens, UniProt P15121); assay: Inhibition of human recombinant ALR2 expressed in Escherichia coli using DL-glyceraldehyde as substrate and NADPH preincubated for 5 mins followed by substrate addition and measured after 30 mins at 2 mins interval by spectrophotometry relative to control
[5] = biological target: Aldo-keto reductase family 1 member B1 (Rattus norvegicus) (UniProt P07943); assay: (§1) Inhibition of ALR2 in rat erythrocytes assessed as reduction in sorbitol accumulation incubated for 3 hrs in presence of 28 mM glucose by gas chromatographic analysis relative to control; format: cell-based
[6] = biological target: Aldo-keto reductase family 1 member B1 (Rattus norvegicus) (UniProt P07943); assay: (§2) Inhibition of ALR2 in rat sciatic nerve assessed as reduction in sorbitol accumulation incubated for 3 hrs in presence of 28 mM glucose by gas chromatographic analysis
[7] = biological target: Aldo-keto reductase family 1 member B1 (Rattus norvegicus) (UniProt P07943); assay: (§3) Inhibition of ALR2 in rat lens assessed as reduction in sorbitol accumulation incubated for 3 hrs in presence of 28 mM glucose by gas chromatographic analysis relative to control
[8] = Antioxidant activity assessed as DPPH radical scavenging activity at 10 uM incubated for 30 mins under dark condition by spectrophotometry; format: functional
[9] = Antioxidant activity assessed as DPPH radical scavenging activity at 50 uM incubated for 30 mins under dark condition by spectrophotometry; format: functional
[10] = Antioxidant activity assessed as DPPH radical scavenging activity at 100 uM incubated for 30 mins under dark condition by spectrophotometry; format: functional
[11] = Cytotoxicity against HEK293 cells assessed as reduction in cell viability at 25 uM incubated for 48 hrs by MTT assay relative to control; format: cell-based; settings: human, read-out: INH
[12] = Cytotoxicity against HEK293 cells assessed as reduction in cell viability at 50 uM incubated for 48 hrs by MTT assay relative to control; format: cell-based; settings: human, read-out: INH
[13] = Cytotoxicity against HEK293 cells assessed as reduction in cell viability at 100 uM incubated for 48 hrs by MTT assay relative to control; format: cell-based; settings: human, read-out: INH
[14] = Cytotoxicity against HEK293 cells assessed as reduction in cell viability at 200 uM incubated for 48 hrs by MTT assay relative to control; format: cell-based; settings: human, read-out: INH
[15] = test system: MIN6; assay: Effect on cell morphology in mouse MIN6 cells assessed as cell viability up to 400 uM incubated for 24 hrs; format: cell-based; settings: min6, 24 h
[16] = biological target: Aldo-keto reductase family 1 member A1 (Rattus norvegicus, UniProt P51635); assay: Inhibition of rat kidney ALR1 using DL-glyceraldehyde as substrate and NADPH preincubated for 5 mins followed by substrate addition and measured for 30 mins at 2 mins interval by spectrophotometry relative to control
[17] = Selectivity ratio of IC50 for rat kidney ALR1 IC50 to IC50 for human recombinant ALR2
[18] = biological target: T1, Aldo-keto reductase family 1 member B1 (Rattus norvegicus, UniProt P07943); assay: as §1; format: cell-based
[19] = biological target: T1, Aldo-keto reductase family 1 member B1; assay: as §2
[20] = biological target: T1, Aldo-keto reductase family 1 member B1; assay: as §3
[21] = test system: MIN6; assay: Antidiabetic activity in mouse MIN6 cells after 83 passages assessed as increase in insulin secretion at 100 uM in presence of 25 mM glucose by ELISA relative to control; format: functional

Sequence of Aldo-keto reductase family 1 member A1 (P51635 whole entry, looked up): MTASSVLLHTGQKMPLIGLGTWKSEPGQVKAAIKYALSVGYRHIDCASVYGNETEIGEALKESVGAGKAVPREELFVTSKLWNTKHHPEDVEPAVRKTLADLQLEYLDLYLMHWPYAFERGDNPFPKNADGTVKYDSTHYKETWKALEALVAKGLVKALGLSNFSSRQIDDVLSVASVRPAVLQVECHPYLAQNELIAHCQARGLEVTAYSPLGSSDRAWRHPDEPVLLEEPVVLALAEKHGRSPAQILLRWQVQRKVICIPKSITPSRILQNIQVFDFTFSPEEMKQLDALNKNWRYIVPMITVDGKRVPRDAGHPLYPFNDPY

Compound	Activity [1]	viability at 24 h, 400 µM [2] [%]	Activity [3] [%]	pIC50 [4]	inhibition [5]	inhibition [6]	inhibition [7]	inhibition [8] [%]	inhibition [9] [%]	inhibition [10] [%]	cytotoxicity at 48 h, 25 µM [11] [%]	cytotoxicity at 48 h, 50 µM [12] [%]	cytotoxicity at 48 h, 100 µM [13] [%]	cytotoxicity at 48 h, 200 µM [14] [%]	Activity [15]	pIC50 [18]	pIC50 [19]	pIC50 [20]	Activity [21] [%]	other results
O=C1NC(=O)C2(CCCc3ccccc32)N1S(=O)(=O)c1ccc([N+](=O)[O-])cc1 (stereo not drawn)	Non-Toxic	81	145	4.46	Dose-dependent effect	Dose-dependent effect	Dose-dependent effect	70.5	77.3	87.6	23.6	36	39.2	53.4	Non-Toxic					
COc1ccc(S(=O)(=O)N2C(=O)NC3(CCCc4ccccc43)C2=O)cc1 (stereo not drawn)	Non-Toxic	81	142	4.93	Dose-dependent effect	Dose-dependent effect	Dose-dependent effect	31.6	45.3	66.9	15.4	13.6	18.5	26.6	Non-Toxic	4.69	4.71	4.80		pIC50 [16]: 4.59; Ratio IC50 [17]: 2.2
CC(/C=C1\SC(=S)N(CC(=O)O)C1=O)=C\c1ccccc1											10.3	12	13.7	18.3						
O=C1NC(=O)C2(CCCc3ccccc32)N1S(=O)(=O)c1ccc(Cl)cc1 (stereo not drawn)	Non-Toxic	81	140	5.21	Dose-dependent effect	Dose-dependent effect	Dose-dependent effect			8.48	10.8	12.6	19.9	33.3	Non-Toxic	5.42	5.36	5.41	159	
O=C1NC(=O)C2(CCCc3ccccc32)N1S(=O)(=O)c1ccc(Br)cc1 (stereo not drawn)	Non-Toxic	81	210	5.24	Dose-dependent effect	Dose-dependent effect	Dose-dependent effect			1.59	12.8	18.8	19.4	25.8	Non-Toxic	5.55	5.57	5.60	160	pIC50 [16]: 4.38; Ratio IC50 [17]: 7.23
O=C1NC2(CCCc3ccccc32)C(=O)N1S(=O)(=O)c1ccc([N+](=O)[O-])cc1 (stereo not drawn)	Non-Toxic	81	121		Dose-dependent effect	Dose-dependent effect	Dose-dependent effect	44.8	67.3	77.6	9.37	14.2	19.2	28.4	Non-Toxic					
O=C1NC2(CCCc3ccccc32)C(=O)N1S(=O)(=O)c1ccc(Br)cc1 (stereo not drawn)	Non-Toxic	81	165	4.96	Dose-dependent effect	Dose-dependent effect	Dose-dependent effect			1.55	16.9	18.9	21.1	39.3	Non-Toxic	4.95	4.98	4.96		pIC50 [16]: 4.36; Ratio IC50 [17]: 4.07
O=C1NC(=O)C2(CCCc3ccccc32)N1S(=O)(=O)c1ccc(F)cc1 (stereo not drawn)	Non-Toxic	81	250	5.23	Dose-dependent effect	Dose-dependent effect	Dose-dependent effect			2.52	11.9	18.9	25.1	36.3	Non-Toxic	5.26	5.13	5.20	164	
CC(=O)c1ccc(S(=O)(=O)N2C(=O)NC3(CCCc4ccccc43)C2=O)cc1 (stereo not drawn)	Non-Toxic	81	118	4.42	Dose-dependent effect	Dose-dependent effect	Dose-dependent effect	25.1	39.8	75.3	17.5	24.4	42	55.5	Non-Toxic	4.59	4.64	4.46		
Cc1c(C)c2c(c(C)c1O)CCC(C)(C(=O)O)O2 (stereo not drawn)								82.5	84.5	94.2										
O=C1NC2(CCCc3ccccc32)C(=O)N1S(=O)(=O)c1ccc(Cl)cc1 (stereo not drawn)	Non-Toxic	81	145	4.40	Dose-dependent effect	Dose-dependent effect	Dose-dependent effect			8.44	12.7	16.1	18.2	23.3	Non-Toxic					
Cc1ccc(S(=O)(=O)N2C(=O)NC(=O)C23CCCc2ccccc23)cc1 (stereo not drawn)	Non-Toxic	81	308	5.30	Dose-dependent effect	Dose-dependent effect	Dose-dependent effect	33.3	37.5	42.4	13.9	22.9	22.6	32	Non-Toxic	5.87	5.88	5.94	222	
O=C1NC2(CCCc3ccccc32)C(=O)N1S(=O)(=O)c1ccc(F)cc1 (stereo not drawn)	Non-Toxic	81	111		Dose-dependent effect	Dose-dependent effect	Dose-dependent effect			2.51	11.4	26.1	31.9	36.5	Non-Toxic					
Cc1ccc(S(=O)(=O)N2C(=O)NC3(CCCc4ccccc43)C2=O)cc1 (stereo not drawn)	Non-Toxic	81	275	5.74	Dose-dependent effect	Dose-dependent effect	Dose-dependent effect	23.2	37.3	42.4	18.2	19.1	20.2	21.5	Non-Toxic	5.77	5.76	5.81	177	
